Reference: patent US9139532B2, “Pyrazolyl guanidine F1F0-atpase inhibitors and therapeutic uses thereof” (Lycera Corporation, priority 2010, dated 2015)
pEC50, pIC50: −log10 of the molar value. Read-outs that look alike come from different tables or passages of the source.

What was measured:
F1F0-ATPase = target: T1, F1F0-ATPase (Bos taurus, UniProt P13621); assay: Inhibition of F1F0-ATPase activity in synthesizing ATP; type: biochemical; conditions: inhibition of ATP synthesis by F1F0-ATPase; read-out: ATP Syn IC50
T1 construct: from tissue

Ramos cells = assay: Cytotoxicity in Ramos cells; type: cell-based; conditions: cytotoxicity in Ramos cells, read-out: Ramos Cell EC50

SMILES | pIC50 (F1F0-ATPase) | pEC50 (Ramos cells; Homo sapiens) | pEC50 (Ramos cells)
Cc1ccc(-c2cc(NC(=NC(=O)c3ccc(C(F)(F)F)cc3)NC(C)(C)C)[nH]n2)cc1F [Compound A-434] | > 5.00 | < 5.00 | –
O=C(N=C(Nc1cc(-c2cc(F)cc(F)c2)n[nH]1)NC1CCC1)c1ccc(Cl)cc1 [Compound A-231] | > 5.00 | > 5.00 | –
CC(N/C(=N/C(=O)c1ccc(Cl)cc1)Nc1cc(C(F)(F)F)[nH]n1)c1cccc(Cl)c1 (stereo not shown) [Compound A-35] | > 5.00 | > 5.00 | –
CC(N/C(=N/C(=O)c1ccc(C(F)(F)F)cc1)Nc1cc(C(F)(F)F)[nH]n1)c1ccc(Cl)cc1 (stereo not shown) [Compound A-23] | > 5.00 | > 5.00 | –
CCOCC(C)NC(=NC(=O)c1ccc(F)cc1)Nc1cc(-c2ccc(Cl)cc2)n[nH]1 (stereo not shown) [Compound A-252] | > 5.00 | > 5.00 | –
CC(C)(C)N/C(=N/C(=O)c1cccc(F)c1)Nc1cc(-c2ccc(F)cc2)n[nH]1 [Compound A-456] | > 5.00 | – | > 5.00
Cc1cc(-c2cc(N/C(=N\C(=O)c3ccc(F)cc3)NC(C)(C)C)n[nH]2)ccc1F [Compound A-418] | > 5.00 | – | > 5.00
COCC(C)N/C(=N/C(=O)c1ccc(F)c(F)c1)Nc1cc(C(F)(F)F)n[nH]1 (stereo not shown) [Compound A-106] | > 5.00 | > 5.00 | –
O=C(N=C(Nc1cc(-c2ccc(F)cc2)n[nH]1)NC1CCOCC1)c1ccc(Cl)c(F)c1 [Compound A-139] | < 5.00 | < 5.00 | –
CCC(C)N/C(=N/C(=O)c1cccc(C#N)c1)Nc1cc(-c2ccc(Cl)cc2)n[nH]1 (stereo not shown) [Compound A-306] | > 5.00 | – | > 5.00
O=C(/N=C(\Nc1cc(C(F)(F)F)[nH]n1)NC1CCCCCC1)c1ccc(C(F)(F)F)cc1 [Compound A-14] | > 5.00 | > 5.00 | –
CC(C)CN/C(=N/C(=O)c1cccc(S(C)(=O)=O)c1)Nc1cc(-c2ccc(F)cc2)n[nH]1 [Compound A-429] | > 5.00 | – | > 5.00
O=C(N=C(Nc1cc(-c2cc(F)cc(F)c2)n[nH]1)NC1CCC1)c1ccc(C(F)(F)F)cc1 [Compound A-298] | > 5.00 | > 5.00 | –
O=C(/N=C(\Nc1cc(-c2cccc(C(F)(F)F)c2)[nH]n1)NC1CCCC1)c1ccc(C(F)(F)F)cc1 [Compound A-421] | > 5.00 | – | > 5.00
O=C(/N=C(/NCc1ccc(Cl)c(F)c1)Nc1cc(C(F)(F)F)[nH]n1)c1ccc(F)c(F)c1 [Compound A-26] | > 5.00 | > 5.00 | –
C[C@@H](CO)N/C(=N/C(=O)c1ccc(F)cc1)Nc1cc(-c2ccc(F)cc2)n[nH]1 [Compound A-391] | < 5.00 | – | < 5.00
Cc1cc(C(=O)/N=C(/NCC(C)(C)C)Nc2cc(C(F)(F)F)[nH]n2)ccn1 [Compound A-85] | > 5.00 | < 5.00 | –
CCC(C)(C)N/C(=N/C(=O)c1ccc(C(F)F)cc1)Nc1cc(C(F)(F)F)[nH]n1 [Compound A-74] | > 5.00 | > 5.00 | –
Cc1cc(C(=O)N=C(Nc2cc(C(F)(F)F)[nH]n2)NC(C)CO)ccc1F (stereo not shown) [Compound A-404] | > 5.00 | – | < 5.00
COc1ccccc1C(=O)N=C(NCc1ccc(F)cc1Cl)Nc1cc(C(F)(F)F)n[nH]1 [Compound A-543] | > 5.00 | > 5.00 | –
O=C(/N=C(/NCc1cccc(C(F)(F)F)c1)Nc1cc(C(F)(F)F)[nH]n1)c1ccc(C(F)(F)F)cc1 [Compound A-2] | > 5.00 | > 5.00 | –
Cc1ccc(-c2cc(N/C(=N\C(=O)c3ccc(F)c(F)c3)NC3CCC3)[nH]n2)cc1F [Compound A-320] | > 5.00 | – | > 5.00

SMILES | pIC50 (F1F0-ATPase) | pEC50 (Ramos cells; Homo sapiens) | pEC50 (Ramos cells)
CC(C)(C)CN/C(=N/C(=O)c1ccc(C(F)(F)F)nc1)Nc1cc(C(F)(F)F)[nH]n1 [Compound A-80] | > 5.00 | > 5.00 | –
O=C(/N=C(\Nc1cc(-c2ccc(Cl)cc2)n[nH]1)NC1CCC1)c1ccc(F)cc1 [Compound A-251] | > 5.00 | – | > 5.00
O=C(/N=C(/NCc1ccc(F)cc1Cl)Nc1cc(C(F)(F)F)[nH]n1)c1ccc(C(F)(F)F)cc1 [Compound A-18] | > 5.00 | > 5.00 | –
CC(C)(C)NC(=NC(=O)c1cccc(C(F)(F)F)c1)Nc1cc(-c2ccc(F)cc2)n[nH]1 [Compound A-448] | > 5.00 | > 5.00 | –
O=C(N=C(Nc1cc(-c2ccc(Cl)cc2)n[nH]1)NC1CCCC1)c1ccc(F)c(F)c1 [Compound A-378] | > 5.00 | > 5.00 | –
CC1(CN/C(=N/C(=O)c2ccc(F)cc2)Nc2cc(-c3ccc(F)cc3)n[nH]2)COC1 [Compound A-196] | > 5.00 | – | > 5.00
CC(C)(C)N/C(=N/C(=O)c1cccc(C(F)(F)F)c1)Nc1cc(-c2cccc(Cl)c2)[nH]n1 [Compound A-128] | > 5.00 | – | > 5.00
CC(C)(C)CN/C(=N/C(=O)c1cccc(C(F)(F)F)c1)Nc1cc(C(F)(F)F)[nH]n1 [Compound A-76] | > 5.00 | > 5.00 | –
C[C@@H](N/C(=N/C(=O)c1ccc(F)c(F)c1)Nc1cc(C(F)(F)F)[nH]n1)c1ccc(Cl)cc1 [Compound A-46] | > 5.00 | > 5.00 | –
N#Cc1cccc(C(=O)/N=C(\Nc2cc(-c3ccc(Cl)cc3)n[nH]2)NC2CCCC2)c1 [Compound A-302] | > 5.00 | – | > 5.00
Cc1ccc(C(=O)/N=C(\Nc2cc(-c3ccc(F)cc3)[nH]n2)NC(C)(C)C)cc1F [Compound A-554] | > 5.00 | – | > 5.00
O=C(/N=C(/NCc1ccc(F)cc1Cl)Nc1cc(-c2cccc(Cl)c2)n[nH]1)c1ccc(C(F)(F)F)cc1 [Compound A-444] | > 5.00 | – | < 5.00
COCC(C)NC(=NC(=O)c1ccc(F)c(F)c1)Nc1cc(-c2ccc(F)cc2)n[nH]1 (stereo not shown) [Compound A-274] | > 5.00 | – | > 5.00
CC(C)CN/C(=N/C(=O)c1cccnc1C(F)(F)F)Nc1cc(-c2ccc(F)cc2)[nH]n1 [Compound A-166] | > 5.00 | – | > 5.00
CCC(C)N/C(=N/C(=O)c1ccc(F)cc1)Nc1cc(-c2ccc(Cl)cc2)n[nH]1 (stereo not shown) [Compound A-209] | > 5.00 | > 5.00 | –
O=C(/N=C(\Nc1cc(-c2cc(F)cc(F)c2)n[nH]1)NC1COC1)c1ccc(F)c(F)c1 [Compound A-197] | > 5.00 | – | > 5.00
Cc1cc(N/C(=N\C(=O)c2ccc(C(F)(F)F)cc2)NC(C)(C)C)n[nH]1 [Compound A-125] | > 5.00 | – | > 5.00
CC1(CNC(=NC(=O)c2ccc(Cl)c(F)c2)Nc2cc(-c3ccc(F)cc3)n[nH]2)CCCO1 (stereo not shown) [Compound A-210] | > 5.00 | > 5.00 | –
O=C(/N=C(\Nc1cc(-c2cc(F)cc(Cl)c2)n[nH]1)NC1CCC1)c1ccc(F)c(F)c1 [Compound A-284] | > 5.00 | – | > 5.00
CCOCCN/C(=N/C(=O)c1ccc(F)c(F)c1)Nc1cc(-c2ccc(F)cc2)n[nH]1 [Compound A-235] | > 5.00 | – | > 5.00
O=C(/N=C(\Nc1cc(-c2cc(F)cc(F)c2)n[nH]1)NC1CCCC1)c1ccc(C(F)(F)F)cc1 [Compound A-291] | > 5.00 | – | > 5.00
O=C(/N=C(/NCc1ccc(F)cc1Cl)Nc1cc(C(F)(F)F)[nH]n1)c1ccc(Cl)cc1 [Compound A-30] | > 5.00 | > 5.00 | –
